Values joined by “and” are separate entries in the source; they are usually repeats but may differ in a detail not shown here. Identical values can stand only once.
Test: Quantitation of PMO in plasma of cynomolgus monkeys following i.v. injection (anion exchange HPLC of the duplex with 5'-fluorescein labeled DNA)
Type: in vivo
Description: • HPLC conditions: • Column: Dionex DNA Pac™ PA-100 (250×4 mm, 15μ particle size) • Mobile Phases: A: 0.025 M Tris (pH 9); B: 0.025 M Tris (pH 9)/1 M NaCl • Gradient: A:B:C 90/10 @ 0 min to 55/45 @ 20 min • Flow Rate: 1.5 mL/min • Wavelength: 494 nm excitation; 518 detection • Temperature: 25° C.
Cynomolgus monkeys were injected i.v. with the analyte PMO, and blood samples were taken at various time intervals, as shown in Table 2. In a typical analysis, 200 μL of plasma was combined with a known amount (e.g. 500 ng) of internal standard (FIG. 11) in 10 μL of 0.025 M Tris buffer, pH 8-9. Methanol (200.0 μL) was added, and the sample was mixed using a vortex mixer. The precipitate was removed with the aid of high speed centrifugation. The supernatant was removed and the pellet washed with 100 μL Tris buffer; the wash was added to the supernatant. The mixture was heated at 70° C. for a period of 10 minutes, and the sample was once again subjected to high speed centrifugation. The supernatant was transferred and lyophilized to dryness. The dry material was reconstituted with a 100.0 μL aliquot of DNA (5′-fluorescein labeled) in 0.025 M Tris (pH 8-9) and transferred to an autosampler vial, and the entire sample was injected onto the HPLC column and analyzed.
A calibration was performed by analysis of plasma standards containing from 250 to 20,000 ng of AVI-4126. The data were plotted as the ratio of analyte to internal standard signal intensities versus the ratio of analyte to internal standard concentrations.
The level detected in this assay was 10.0 ng analyte, which corresponded to 50 ng/mL. The sensitivity of this method thus far exceeds the detection and quantitation limits of UV based methods.

PMO: PMO (phosphorodiamidate morpholino oligomer) having the sequence ACGTTGAGGGGCATCGTCGC (SEQ ID NO: 1), antisense to human c-myc (antisense ACGTTGAGGGGCATCGTCGC; all phosphorodiamidate morpholino (PMO))
level detected in representative assay (FIG. 12), amount of analyte (200 μL plasma sample, representative assay, time point not stated): 10.0 ng | level detected in representative assay (FIG. 12), plasma concentration (corresponds to 10.0 ng analyte in plasma sample, time point not stated): 50 ng/mL | Quantitation of PMO in plasma, 10 min (cynomolgus monkey plasma, i.v. injection, 10 min, one value per monkey ID): 92.505 µg/mL and 105.37 µg/mL and 105.685 µg/mL | Quantitation of PMO in plasma, 2 h (cynomolgus monkey plasma, i.v. injection, 2 h, one value per monkey ID): 49.895 µg/mL and 68.025 µg/mL and 49.755 µg/mL | Quantitation of PMO in plasma, 6 hr (cynomolgus monkey plasma, i.v. injection, 6 hr, one value per monkey ID): 29.81 µg/mL and 45.33 µg/mL and 32.015 µg/mL | Quantitation of PMO in plasma, 24 hr (cynomolgus monkey plasma, i.v. injection, 24 hr, one value per monkey ID): 17.575 µg/mL and 14.895 µg/mL and 12.645 µg/mL
